Assay results: ChEMBL document CHEMBL3352542, “Synthesis, biological evaluation and molecular modeling study of 2-(1,3,4-thiadiazolyl-thio and 4-methyl-thiazolyl-thio)-quinazolin-4-ones as a new class of DHFR inhibitors” (Bioorg Med Chem Lett, 2014)
pIC50: −log10 of the molar value. Activity calls are given as the source filed them. The rule behind the calls is not given here.

Tests used:
Dihydrofolate reductase = target: T1, Dihydrofolate reductase (Bos taurus, UniProt P00376); test: Inhibition of bovine liver DHFR
T1 sequence (P00376 whole entry): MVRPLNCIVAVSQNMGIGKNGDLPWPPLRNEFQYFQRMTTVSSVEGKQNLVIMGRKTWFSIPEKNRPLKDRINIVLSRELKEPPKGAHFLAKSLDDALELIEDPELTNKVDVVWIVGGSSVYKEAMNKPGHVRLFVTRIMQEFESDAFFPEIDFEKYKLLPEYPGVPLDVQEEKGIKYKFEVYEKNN

Staphylococcus aureus = test: Antimicrobial activity against Staphylococcus aureus assessed as inhibition zone at 200 ug/disk after 24 hrs by disc-diffusion method; format: functional; conditions: read-out: IZ
Bacillus subtilis = test: Antimicrobial activity against Bacillus subtilis assessed as inhibition zone at 200 ug/disk after 24 hrs by disc-diffusion method; format: functional; conditions: read-out: IZ
Escherichia coli = test: Antimicrobial activity against Escherichia coli assessed as inhibition zone at 200 ug/disk after 24 hrs by disc-diffusion method; format: functional; conditions: read-out: IZ
Pseudomonas aeruginosa = test: Antimicrobial activity against Pseudomonas aeruginosa assessed as inhibition zone at 200 ug/disk after 24 hrs by disc-diffusion method; format: functional; conditions: read-out: IZ
Candida albicans = test: Antimicrobial activity against Candida albicans assessed as inhibition zone at 200 ug/disk after 24 hrs by disc-diffusion method; format: functional; conditions: read-out: IZ
CCRF-CEM = test: Growth inhibition of human CCRF-CEM cells at 10 uM after 48 hrs; format: functional
HL-60(TB) = test: Growth inhibition of human HL-60(TB) cells at 10 uM after 48 hrs; format: functional
K562 = test: Growth inhibition of human K562 cells at 10 uM after 48 hrs; format: functional
MOLT-4 = test: Growth inhibition of human MOLT4 cells at 10 uM after 48 hrs; format: functional
RPMI-8226 = test: Growth inhibition of human RPMI8226 cells at 10 uM after 48 hrs; format: functional
SR = test: Growth inhibition of human SR cells at 10 uM after 48 hrs; format: functional
A549 = test: Growth inhibition of human A549 cells at 10 uM after 48 hrs; format: functional
HOP-92 = test: (§1) Growth inhibition of human HOP92 cells at 10 uM after 48 hrs; format: functional
NCI-H226 = test: Growth inhibition of human NCI-H226 cells at 10 uM after 48 hrs; format: functional
NCI-H23 = test: Growth inhibition of human NCI-H23 cells at 10 uM after 48 hrs; format: functional
NCI-H460 = test: Growth inhibition of human NCI-H460 cells at 10 uM after 48 hrs; format: functional
NCI-H522 = test: Growth inhibition of human NCI-H522 cells at 10 uM after 48 hrs; format: functional
COLO 205 = test: Growth inhibition of human COLO205 cells at 10 uM after 48 hrs; format: functional
HCC 2998 = test: Growth inhibition of human HCC2998 cells at 10 uM after 48 hrs; format: functional
HCT-116 = test: Growth inhibition of human HCT116 cells at 10 uM after 48 hrs; format: functional
HCT-15 = test: Growth inhibition of human HCT15 cells at 10 uM after 48 hrs; format: functional
HT-29 = test: Growth inhibition of human HT-29 cells at 10 uM after 48 hrs; format: functional
KM12 = test: Growth inhibition of human KM12 cells at 10 uM after 48 hrs; format: functional
SW-620 = test: Growth inhibition of human SW620 cells at 10 uM after 48 hrs; format: functional
SF-268 = test: Growth inhibition of human SF268 cells at 10 uM after 48 hrs; format: functional
SF-295 = test: (§2) Growth inhibition of human SF295 cells at 10 uM after 48 hrs; format: functional
SF-539 = test: Growth inhibition of human SF539 cells at 10 uM after 48 hrs; format: functional
SNB-19 = test: Growth inhibition of human SNB19 cells at 10 uM after 48 hrs; format: functional
SNB-75 = test: Growth inhibition of human SNB75 cells at 10 uM after 48 hrs; format: functional
U-251 = test: Growth inhibition of human U251 cells at 10 uM after 48 hrs; format: functional
LOX IMVI = test: Growth inhibition of human LOXIMVI cells at 10 uM after 48 hrs; format: functional
Malme-3M = test: Growth inhibition of human MALME-3M cells at 10 uM after 48 hrs; format: functional
M14 = test: Growth inhibition of human M14 cells at 10 uM after 48 hrs; format: functional
MDA-MB-435 = test: Growth inhibition of human MDA-MB-435 cells at 10 uM after 48 hrs; format: functional
SK-MEL-5 = test: Growth inhibition of human SK-MEL-5 cells at 10 uM after 48 hrs; format: functional
UACC-257 = test: Growth inhibition of human UACC257 cells at 10 uM after 48 hrs; format: functional
UACC-62 = test: Growth inhibition of human UACC62 cells at 10 uM after 48 hrs; format: functional
OVCAR-3 = test: Growth inhibition of human OVCAR3 cells at 10 uM after 48 hrs; format: functional
OVCAR-4 = test: Growth inhibition of human OVCAR4 cells at 10 uM after 48 hrs; format: functional
OVCAR-5 = test: Growth inhibition of human OVCAR5 cells at 10 uM after 48 hrs; format: functional
OVCAR-8 = test: Growth inhibition of human OVCAR8 cells at 10 uM after 48 hrs; format: functional
NCI/ADR-RES = test: Growth inhibition of human NCI-ADR-RES cells at 10 uM after 48 hrs; format: functional
786-0 = test: Growth inhibition of human 786-0 cells at 10 uM after 48 hrs; format: functional
A498 = test: Growth inhibition of human A498 cells at 10 uM after 48 hrs; format: functional
ACHN = test: Growth inhibition of human ACHN cells at 10 uM after 48 hrs; format: functional
CAKI-1 = test: Growth inhibition of human CAKI-1 cells at 10 uM after 48 hrs; format: functional
RXF 393 = test: Growth inhibition of human RXF393 cells at 10 uM after 48 hrs; format: functional
SN12C = test: Growth inhibition of human SN12C cells at 10 uM after 48 hrs; format: functional
TK-10 = test: Growth inhibition of human TK10 cells at 10 uM after 48 hrs; format: functional
UO-31 = test: (§3) Growth inhibition of human UO31 cells at 10 uM after 48 hrs; format: functional
PC-3 = test: (§4) Growth inhibition of human PC3 cells at 10 uM after 48 hrs; format: functional
MCF7 = test: Growth inhibition of human MCF7 cells at 10 uM after 48 hrs; format: functional
MDA-MB-231 = test: Growth inhibition of human MDA-MB-231 cells at 10 uM after 48 hrs; format: functional
Hs-578T = test: Growth inhibition of human Hs 578T cells at 10 uM after 48 hrs; format: functional
BT-549 = test: Growth inhibition of human BT549 cells at 10 uM after 48 hrs; format: functional
T47D = test: Growth inhibition of human T47D cells at 10 uM after 48 hrs; format: functional
MDA-MB-468 = test: Growth inhibition of human MDA-MB-468 cells at 10 uM after 48 hrs; format: functional
[1] = as §1; format: functional; conditions: HOP-92, 48 h, read-out: GI
[2] = as §2; format: functional; conditions: SF-295, 48 h, read-out: GI
[3] = as §3; format: functional; conditions: UO-31, 48 h, read-out: GI
[4] = as §4; format: functional; conditions: PC-3, 48 h, read-out: GI

Cc1ccc(-n2c(Sc3sc(N)nc3C)nc3ccc(C)cc3c2=O)cc1
pIC50 (Dihydrofolate reductase): 5.15
zone of inhibition at 200 µg/disc (Staphylococcus aureus): 8 mm
zone of inhibition at 200 µg/disc (Bacillus subtilis): 8 mm
zone of inhibition at 200 µg/disc (Escherichia coli): 8 mm
zone of inhibition at 200 µg/disc (Pseudomonas aeruginosa): 8 mm
zone of inhibition at 200 µg/disc (Candida albicans): 8 mm
growth inhibition (GI) (CCRF-CEM): inactive
growth inhibition (GI) (HL-60(TB)): inactive
growth inhibition (GI) (K562): inactive
growth inhibition (GI) (MOLT-4): inactive
growth inhibition (GI) (RPMI-8226): inactive
growth inhibition (GI) (SR): inactive
growth inhibition (GI) (A549): inactive
growth inhibition (GI) (HOP-92): inactive
growth inhibition (GI) (NCI-H226): inactive
growth inhibition (GI) (NCI-H23): inactive
growth inhibition (GI) (NCI-H460): inactive
growth inhibition (GI) (NCI-H522): inactive
growth inhibition (GI) (COLO 205): inactive
growth inhibition (GI) (HCC 2998): inactive
growth inhibition (GI) (HCT-116): inactive
growth inhibition (GI) (HCT-15): inactive
growth inhibition (GI) (HT-29): inactive
growth inhibition (GI) (KM12): inactive
growth inhibition (GI) (SW-620): inactive
growth inhibition (GI) (SF-268): inactive
growth inhibition (GI) (SF-295): inactive
growth inhibition (GI) (SF-539): inactive
growth inhibition (GI) (SNB-19): inactive
growth inhibition (GI) (SNB-75): inactive
growth inhibition (GI) (U-251): inactive
growth inhibition (GI) (LOX IMVI): inactive
growth inhibition (GI) (Malme-3M): inactive
growth inhibition (GI) (M14): inactive
growth inhibition (GI) (MDA-MB-435): inactive
growth inhibition (GI) (SK-MEL-5): inactive
growth inhibition (GI) (UACC-257): inactive
growth inhibition (GI) (UACC-62): inactive
growth inhibition (GI) (OVCAR-3): inactive
growth inhibition (GI) (OVCAR-4): inactive
growth inhibition (GI) (OVCAR-5): inactive
growth inhibition (GI) (OVCAR-8): inactive
growth inhibition (GI) (NCI/ADR-RES): inactive
growth inhibition (GI) (786-0): inactive
growth inhibition (GI) (A498): inactive
growth inhibition (GI) (ACHN): inactive
growth inhibition (GI) (CAKI-1): inactive
growth inhibition (GI) (RXF 393): inactive
growth inhibition (GI) (SN12C): inactive
growth inhibition (GI) (TK-10): inactive
growth inhibition (GI) (UO-31): inactive
growth inhibition (GI) (PC-3): inactive
growth inhibition (GI) (MCF7): inactive
growth inhibition (GI) (MDA-MB-231): inactive
growth inhibition (GI) (Hs-578T): inactive
growth inhibition (GI) (BT-549): inactive
growth inhibition (GI) (T47D): inactive
growth inhibition (GI) (MDA-MB-468): inactive

COc1ccc(-n2c(Sc3nnc(N)s3)nc3cc(OC)c(OC)cc3c2=O)cc1
pIC50 (Dihydrofolate reductase): 5.15
zone of inhibition at 200 µg/disc (Staphylococcus aureus): 8 mm
zone of inhibition at 200 µg/disc (Bacillus subtilis): 8 mm
zone of inhibition at 200 µg/disc (Escherichia coli): 8 mm
zone of inhibition at 200 µg/disc (Pseudomonas aeruginosa): 8 mm
zone of inhibition at 200 µg/disc (Candida albicans): 8 mm
inhibition of growth at 10 µM [1]: 33.7%

COc1cc2nc(Sc3nnc(N)s3)n(-c3ccccc3)c(=O)c2cc1OC
pIC50 (Dihydrofolate reductase): 5.00
zone of inhibition at 200 µg/disc (Staphylococcus aureus): 8 mm
zone of inhibition at 200 µg/disc (Bacillus subtilis): 8 mm
zone of inhibition at 200 µg/disc (Escherichia coli): 8 mm
zone of inhibition at 200 µg/disc (Pseudomonas aeruginosa): 8 mm
zone of inhibition at 200 µg/disc (Candida albicans): 8 mm
inhibition of growth at 10 µM [1]: 15.4%
inhibition of growth at 10 µM [2]: 10.6%
inhibition of growth at 10 µM [3]: 14.2%
inhibition of growth at 10 µM [4]: 10.9%
inhibition of growth at 10 µM (MDA-MB-468; MDA-MB-468, 48 h, read-out: GI): 10.4%
